# Ends that are not written are not given here.
# Test system: IL8 release, epithelial cells from human gingival mucosa
# Assay: IL8 release in human ex vivo gingival mucosa model stimulated by substance P
# Format: cell-based
# Conditions: gingival mucosa stimulated by substance P 10 microM alone; measured at 24 hours; versus 29.6 ng/ml in control group (p=0.04)
# Protocol: Tritoqualin effect on IL8 release on a human ex vivo model (epithelial Cells from Human gingival extraction maintained in survival) after stimulation of IL8 release
# 13 fragments of gingival mucous from different human donors (removal of wisdom teeth of healthy volunteers) were maintained in survival ex vivo. To this end, fragments were placed in inserts themselves willing suspended above the culture wells. The nutrient medium (antibiotics, FCS—Fetal Calf Serum) was added to the bottom of the wells, passage is carried out by slow diffusion of the two compartments by means of a porous membrane ([…]). The whole was maintained in organ culture for 24 hours in an oven to a humid atmosphere at 37° C. in the presence of 5% CO2.
# Gingival inflammation was achieved by stimulation of the mucosa with a neurotransmitter, substance P (10 microM) deposited in the culture medium. Tritoqualine was added to the culture medium (systemic effect) at a concentration of 20 microM, 10 minutes after application of substance P. […]
# The inflammatory cytokine, IL8, a potent chemo attractant of neutrophils, was measured in culture supernatants, 24 hours after deposition of substance P.
# IL8 was measured in ng/ml by immunoassays (kits Gen Probe, France) with a spectrophotometer at 450 nm.
substance,measurement,value
"Substance P: neurotransmitter, an established pro-inflammatory compound used to stimulate IL8 release (RPKPQQFFGLM-NH2; ends and bridges not checked; UniProt P20366 58-68, looked up)",IL8 release in culture supernatant,31.7 ng/mL
